Where “and” joins values, the source holds several entries; their conditions need not be identical. Equal entries are not always repeated. Entries after “also recorded” stand apart in the source; their conditions may differ. Structures can show the parent of a compound that is named as a salt. Where two headings read alike, the source gives them in different places.
Assays:
WT M2 [1] = target: T1, WT M2 (Influenza A virus, UniProt P0DOF5); assay: cell-based; conditions: for inhibition at 100 µM: read-out: % inhibition at 100 µM in TEVC WT
Target sequence in this assay (P0DOF5 whole entry, looked up): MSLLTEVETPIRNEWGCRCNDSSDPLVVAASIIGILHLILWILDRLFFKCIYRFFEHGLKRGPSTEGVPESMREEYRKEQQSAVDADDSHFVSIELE

WT M2 [2] = target: T1, WT M2; assay: cell-based; set-up: expressed in transfected cells; host or cells: Saccharomyces cerevisiae, multicopy plasmid, GAL1 promoter; conditions: for EC50: yeast expressing WT M2, growth measured after 40 h; for growth of the strain expressing WT M2: 27% of control without amantadine, 48 h
Target sequence in this assay (P0DOF5 whole entry): as the sequence (P0DOF5 whole entry, looked up) above

M2 channel = test system: M2 channel; set-up: method as in PMID 20570509; conditions: weaker than amantadine; cited from earlier work
[3] = test system: influenza A/Udorn/72 WT virus; assay type: cell-based
in vitro = conditions: dog
Protocol: Cytotoxicity towards MDCK cells was assayed after 48 h drug exposure with the MTT tetrazolium dye assay as described [55].

[4] = target: mammalian Na+/H+ exchanger; set-up: method as in PMID 3016497; conditions: read-out: apparent Ki; cited from earlier work
[5] = read-out: EC50, yeast growth restoration

Compound | EC50 (WT M2 [2]; [5]) | inhibition at 100 µM (WT M2 [1]) | also measured
CCSC1=NCN(CC(C)(C)C)CN1 [Compound 32, 6-(ethylthio)-3-neopentyl-1,2,3,4-tetrahydro-1,3,5-triazine] | – | – | % inhibition at 100 µM in TEVC WT (WT M2 [1]): 4.7 ± 1.3
O=[N+]([O-])c1ccccc1CNC1C2CC3CC(C2)CC1C3 (centres unmarked) [Compound 5, 2-adamantyl (2-nitrobenzyl)amine] | 5000 nM | – | –
C1CNC(NCC23CC4CC(CC(C4)C2)C3)=N1 [Compound 12, N-(adamantan-1-ylmethyl)-4,5-dihydro-1H-imidazol-2-amine hydroiodide] | 400 nM and < 1000 nM | – | –
CCN(c1nc(N)c(C(=O)NC(=N)N)nc1Cl)C(C)C [Compound 21, 5-(N-Ethyl-N-isopropyl)amiloride] | – | 47.3 ± 0.5% | % inhibition at 100 µM in TEVC WT (WT M2 [1]): moderate inhibition
CCc1noc(C)c1C(=O)NCC12CC3CC(CC(C3)C1)C2 [Compound 9, N-(adamantan-1-ylmethyl)-3-ethyl-5-methyl-1,2-oxazole-4-carboxamide] | 800 nM and < 1000 nM | – | –
CCSC1=NCN(Cc2ccccc2)CN1 [Compound 28, 3-benzyl-6-(ethylthio)-1,2,3,4-tetrahydro-1,3,5-triazine] | – | 5.4 ± 1.6% | –
Cn1cccc1CNC1CCCCCCC1 [Compound 19, N-[(1-methyl-1H-pyrrol-2-yl)methyl] cyclooctanamine] | 30000 nM | – | –
CN(C)c1nc(N)c(C(=O)NC(=N)N)nc1Cl [Compound 20, 5-(N,N-Dimethyl)amiloride hydrochloride] | – | 23.3 ± 1.9% | % inhibition at 100 µM in TEVC WT (WT M2 [1]): moderate inhibition
Cc1cc(C(=O)NC2C3CC4CC(C3)CC2C4)no1 (centres unmarked) [Compound 11, N-(adamantan-2-yl)-5-methyl-1,2-oxazole-3-carboxamide] | 1500 nM | – | –
NC1CCCCCCC1 [Cyclooctylamine] | – | – | binding affinity relative to amantadine (M2 channel): 6 fold
CSC1=NCN(Cc2ccccc2)CN1 [Compound 18, 3-benzyl-6-(methylthio)-1,2,3,4-tetrahydro-1,3,5-triazine hydroiodide] | 12000 nM | 4.5% | –
CS/C(=N/C#N)NC12CC3CC(CC(C3)C1)C2 [Compound 7, (E)-methyl N-((3s,5s,7s)-adamantan-1-yl)-N'-cyanocarbamimidothioate] | 12000 nM | – | –
CCSC1=NCN(CC2CCCCC2)CN1 [Compound 33, 3-(cyclohexylmethyl)-6-(ethylthio)-1,2,3,4-tetrahydro-1,3,5-triazine] | 700 nM | 63.9 ± 2% | –
CCSC1=NCN(CCc2cccs2)CN1 [Compound 30, 6-(ethylthio)-3-(2-(thiophen-2-yl)ethyl)-1,2,3,4-tetrahydro-1,3,5-triazine] | – | 1.1 ± 1.1% | –
Cc1ncc(C23CC4CC(CC(C4)C2)C3)[nH]1 [Compound 10, 5-(adamantan-1-yl) -2-methyl-1H-imidazole] | – | – | inhibition of plaque formation [3]: almost completely inhibited; CC50 (in vitro): > 100000 nM; EC50 (WT M2 [2]; EC50, yeast growth restoration): < 1000 nM and 300 nM
CSC1=NCN(Cc2cccs2)CN1 [Compound 23, 6-(methylthio)-3-(thiophen-2-ylmethyl)-1,2,3,4-tetrahydro-1,3,5-triazine] | – | 8.1 ± 1.7% | –
3-(2-methylbut-3-yn-2-yl)-6-(methylthio)-1,2,3,4-tetrahydro-1,3,5-triazine hydroiodide [Compound 27] | – | – | % inhibition at 100 µM in TEVC WT (WT M2 [1]): 17.0 ± 1.9

Compound | EC50 (WT M2 [2]; [5]) | inhibition at 100 µM (WT M2 [1]) | also measured
CNCC(=O)C12CC3CCC(CC(C3)C1)C2 [Compound 8, 2-(methylamino)-1-tricyclo[4.3.1.1~3,8~] undec-1-ylethanone hydrochloride] | 3000 nM | – | –
NC12CC3CC(CC(C3)C1)C2 [Amantadine, reference compound] | – | 92% | CC50 (in vitro): ~100000 nM; growth of the strain expressing WT M2 (WT M2 [2]; 0.3 µM amantadine): 65 % of control; growth of the strain expressing WT M2 (WT M2 [2]; 1 µM amantadine): 95 % of control; growth increase (WT M2 [2]; 1 µM, 384-well plate assay, yeast expressing WT M2): 3 fold; growth of the strain expressing WT M2 (WT M2 [2]; 3 µM amantadine): 95 % of control
CC(NC(=S)NC(=O)C=Cc1ccco1)C12CC3CC(CC(C3)C1)C2 (centres unmarked) [Compound 6, N-(([1-(1-adamantyl)ethyl]amino)carbonothioyl)-3-(2-furyl)acrylamide] | – | – | inhibition of plaque formation [3]: almost completely inhibited; CC50 (in vitro): > 30000 nM; EC50 (WT M2 [2]; EC50, yeast growth restoration): 200 nM and < 1000 nM
Br.CSC1=NCN(C(C)(C)C)CN1 [Compound 25, 3-(tert-butyl)-6-(methylthio)-1,2,3,4-tetrahydro-1,3,5-triazine hydrobromide] | – | – | % inhibition at 100 µM in TEVC WT (WT M2 [1]): 13.3 ± 1.5
CCSC1=NCN(CC(C)C)CN1 [Compound 31, 6-(ethylthio)-3-isobutyl-1,2,3,4-tetrahydro-1,3,5-triazine] | – | 1.2 ± 0.6% | –
NC(N)=NC(=O)c1nc(Cl)c(N2CCCCCC2)nc1N [Compound 14, Hexamethylene amiloride] | – | 89.9% | Ki [4]: 200 nM; CC50 (in vitro): 16000 nM; EC50 (WT M2 [2]; EC50, yeast growth restoration): 1100 nM and 1000 nM
CC(=O)Nc1ccc(S(=O)(=O)NC23CC4CC(CC(C4)C2)C3)cc1 [Compound 2, N1-(4-[(1-adamantylamino)sulfonyl]phenyl)acetamide] | 5000 nM | – | –
CCSC1=NCN(Cc2cccs2)CN1 [Compound 29, 6-(ethylthio)-3-(thiophen-2-ylmethyl)-1,2,3,4-tetrahydro-1,3,5-triazine] | – | 6.7 ± 1.4% | –
c1cc2c(cc1NC1C3CC4CC(C3)CC1C4)OCO2 (centres unmarked) [Compound 3, 2-adamantyl (1,3-benzodioxol-5-yl)amine] | 20000 nM | – | –
CCSC1=NCN(Cc2ccco2)CN1 [Compound 24, 6-(ethylthio)-3-(furan-2-ylmethyl)-1,2,3,4-tetrahydro-1,3,5-triazine] | – | 17.9 ± 2.8% | –
Br.CSC1=NCN(CCCO)CN1 [Compound 26, 3-(4-(methylthio)-5,6-dihydro-1,3,5-triazin-1(2H)-yl)propan-1-ol hydrobromide] | – | – | % inhibition at 100 µM in TEVC WT (WT M2 [1]): 5.5 ± 0.9
OCC1CCCN1CC12CC3CC(CC(C3)C1)C2 (centres unmarked) [Compound 13, [1-(adamantan-1-ylmethyl)pyrrolidin-2-yl] methanol hydrochloride] | 15000 nM | – | –
O=[N+]([O-])c1ccc(CNC23CC4CC(CC(C4)C2)C3)cc1 [Compound 4, 1-adamantyl (4-nitrobenzyl)amine] | 5000 nM | 43.5% | –
O=C1NC(=S)NC(=O)C1=CNC12CC3CC(CC(C3)C1)C2 [Compound 1, 5-[(1-adamantylamino)methylene]-2-thioxodihydro-4,6(1H,5H)-pyrimidinedione] | 2500 nM | – | –
C=C1C(N)CC2CC1C2(C)C (stereo not drawn) [Compound 15, 3-amino-beta-pinene] | 500 nM and < 1000 nM | – | –
CCSC1=NCN(C2CCCCCCC2)CN1 [Compound 34, 3-cyclooctyl-6-(ethylthio)-1,2,3,4-tetrahydro-1,3,5-triazine] | – | 89.7% | inhibition of plaque formation [3]: completely inhibited; also recorded: moderate inhibition; CC50 (in vitro): 75000 nM; EC50 (WT M2 [2]; EC50, yeast growth restoration): 300 nM
